Tests used:
IL-1β = assay: LPS stimulated IL-1β in differentiated U937 cells (hPBMC), ELISA; type: cell-based; conditions: Homo sapiens, U-937; LPS 0.1 μg/mL, 4 hours
[1] = Crystal form screen of Compound (P)-I; type: physicochemical; conditions: for Crystal form obtained, EV: evaporation; for Crystal form obtained, RC: rapid cooling 40 to −20° C.; for Crystal form obtained, TC: temperature-cycled slurry 5-40° C.
Protocol: Water-containing solvents with a variety of water activities (aw)^1 were also included to probe for the formation of hydrates. Temperatures ranging between 40° C. to −20° C.
The screening studies were comprised of the following crystallization modes: • Temperature-cycled ripening of API slurries between 5-40° C. for four days (TC) • Rapid cooling clarified saturated solutions from 40 to −20° C. and holding at −20° C. for three days (RC) • Slow evaporation of clarified solutions at RT over 14 days.

IL-6 = assay: LPS stimulated IL-6 in differentiated U937 cells (hPBMC), ELISA; type: cell-based; conditions: Homo sapiens, U-937; LPS 0.1 μg/mL, 4 hours
Protocol: (§1) Therefore, inhibition of the p38 MAP Kinase pathway will lower the inflammatory response by decreasing biosynthesis of pro-inflammatory cytokines. […] The U937 human pre-monocytic cell line was obtained from the American Type Culture Collection (Rockville, MD). These cells were differentiated to a monocytic/macrophage phenotype as described by Burnette (Burnette et al, (2009). […] Differentiated U937 cells (human peripheral blood mononuclear cells (hPBMC)) were seeded into 96-well tissue culture plates (200,000 cells/well) in complete media. […] Culture media was then collected for determination of TNFα, IL-6 or IL-10 levels by ELISA. Cytokine concentrations were extrapolated from recombinant protein standard curves using a four-parameter logistic model and solving for IC50 after iterating to the best least-squares fit.

TNFα = assay: LPS stimulated TNFα in differentiated U937 cells (hPBMC), ELISA; type: cell-based; conditions: Homo sapiens, U-937; LPS 0.1 μg/mL, 4 hours
Protocol: as §1

[2] = MTX 7.5 mg single oral dose alone, fasted
[3] = 2-Methoxyethanol:Isopropyl ether (20:80)
[4] = 2-propanol:Water (90:10), water activity 0.65
[5] = 2-propanol:Water (95:5), water activity 0.55
[6] = Acetone:Water (20:80), water activity 0.96
[7] = Acetone:Water (80:20), water activity 0.77
[8] = Acetonitrile:Water (90:10), water activity 0.76
[9] = Methanol:Water (90:10), water activity 0.33
[10] = Methanol:Water (95:5), water activity 0.20
[11] = Tetrahydrofuran::Water (20:80), water activity 0.82

In the case of `Cc1cnc(-c2ccnc(C(C)(C)O)n2)cc1-n1c(C)cc(OCc2ncc(F)cc2F)c(Cl)c1=O` (single isomer, unassigned) [(P)-I, (P)-3-chloro-4-((3,5-difluoropyridin-2-yl)methoxy)-2′-(2-(2-hydroxypropan-2-yl)pyrimidin-4-yl)-5′,6-dimethyl-2H-[1,4′-bipyridin]-2-one], the IC50 (IL-1β) is reported as 0.012 µM, the “Crystal form obtained, EV” value ([1]; 1,4-Dioxane) is reported as “Form A” and the “Crystal form obtained, EV” value ([1]; 1,4-Dioxane:Water (90:10), water activity 0.70) is reported as “Form A”. The “Crystal form obtained, EV” value ([1]; 1-Propanol) was “Form A”, the “Crystal form obtained, EV” value ([1]; 2-Butanone) was “Form A” and the “Crystal form obtained, EV” value [1, 3] was “Form A”. The “Crystal form obtained, EV” value ([1]; 2-Propanol) was “Form A”, the “Crystal form obtained, EV” value [1, 4] was “Form A” and the “Crystal form obtained, EV” value [1, 5] was “Form A”. For the same molecule, the “Crystal form obtained, EV” value ([1]; 4-Methyl-2-pentanone) was “Form A”, the “Crystal form obtained, EV” value ([1]; Acetone) was “Form A” and the “Crystal form obtained, EV” value [1, 6] was “Form A”. The “Crystal form obtained, EV” value [1, 7] was “Form A”, the “Crystal form obtained, EV” value ([1]; Acetone:Water (90:10), water activity 0.70) was “Form A” and the “Crystal form obtained, EV” value ([1]; Acetonitrile) was “Form A”. For the same molecule, the “Crystal form obtained, EV” value [1, 8] was “Form A”, the “Crystal form obtained, EV” value ([1]; DMSO:t-butyl methyl ether (20:80)) was “Form A” and the “Crystal form obtained, EV” value ([1]; Dichloromethane) was “Form A”. For the same molecule, the “Crystal form obtained, EV” value ([1]; Dimethyl carbonate) was “Form A”, the “Crystal form obtained, EV” value ([1]; Ethanol) was “Form A” and the “Crystal form obtained, EV” value ([1]; Ethyl acetate) was “Form A”. The “Crystal form obtained, EV” value ([1]; Isopropyl acetate) was “Form A”, the “Crystal form obtained, EV” value ([1]; Methanol) was “Form A” and the “Crystal form obtained, EV” value [1, 9] was “Form A”. The “Crystal form obtained, EV” value [1, 10] was “Form A”, the “Crystal form obtained, EV” value ([1]; Nitromethane) was “Form A” and the “Crystal form obtained, EV” value ([1]; Tetrahydrofuran) was “Form A”. For the same molecule, the “Crystal form obtained, EV” value [1, 11] was “Form A”, the “Crystal form obtained, EV” value ([1]; Tetrahydrofuran:Water (90:10), water activity 0.83) was “Form A” and the “Crystal form obtained, EV” value ([1]; Toluene) was “Form A”. For the same molecule, the “Crystal form obtained, RC” value [1, 4] was “Form A”, the “Crystal form obtained, RC” value [1, 7] was “Form A” and the “Crystal form obtained, RC” value ([1]; Acetonitrile) was “Form A”. For the same molecule, the “Crystal form obtained, RC” value [1, 9] was “Form A”, the “Crystal form obtained, RC” value ([1]; Nitromethane) was “Form A” and the “Crystal form obtained, TC” value ([1]; 1-Butanol) was “Form A”. The “Crystal form obtained, TC” value ([1]; 1-Methoxy-2-propanol:Isopropyl ether (20:80)) was “Form A”, the “Crystal form obtained, TC” value [1, 3] was “Form A” and the “Crystal form obtained, TC” value ([1]; 2-Methoxyethyl ether:Heptane (20:80)) was “Form A”. For the same molecule, the “Crystal form obtained, TC” value ([1]; 2-Propanol) was “Form A”, the “Crystal form obtained, TC” value [1, 5] was “Form A” and the “Crystal form obtained, TC” value ([1]; 4-Methyl-2-pentanone) was “Form A”. For the same molecule, the “Crystal form obtained, TC” value ([1]; 4-Methyl-2-pentanone:heptane (20:80)) was “Form A”, the “Crystal form obtained, TC” value [1, 6] was “Form A” and the “Crystal form obtained, TC” value ([1]; Acetonitrile) was “Form A”. For the same molecule, the “Crystal form obtained, TC” value [1, 8] was “Form A”, the “Crystal form obtained, TC” value ([1]; Acetonitrile:Water (95:5), water activity 0.94) was “Form A” and the “Crystal form obtained, TC” value ([1]; Acetonitrile:isopropyl ethyl ether (20:80)) was “Form A”. The “Crystal form obtained, TC” value ([1]; Chlorobenzene:Cyclohexane (20:80)) was “Form A”, the “Crystal form obtained, TC” value ([1]; Cyclohexane) was “Form A” and the “Crystal form obtained, TC” value ([1]; Dimethyl carbonate) was “Form A”. For the same molecule, the “Crystal form obtained, TC” value ([1]; Ethanol:Water (20:80), water activity 0.93) was “Form A”, the “Crystal form obtained, TC” value ([1]; Ethyl acetate:cyclohexane (20:80)) was “Form A” and the “Crystal form obtained, TC” value ([1]; Heptane) was “Form A”. For the same molecule, the “Crystal form obtained, TC” value ([1]; Isopropyl acetate) was “Form A”, the “Crystal form obtained, TC” value ([1]; Isopropyl ether) was “Form A” and the “Crystal form obtained, TC” value [1, 9] was “Form A”. For the same molecule, the “Crystal form obtained, TC” value [1, 10] was “Form A”, the “Crystal form obtained, TC” value ([1]; Methyl acetate:Heptane (20:80)) was “Form A” and the “Crystal form obtained, TC” value ([1]; N,N-Dimethylformamide:Water (20:80), water activity 0.95) was “Form A”. For the same molecule, the “Crystal form obtained, TC” value ([1]; Nitromethane) was “Form A”, the “Crystal form obtained, TC” value [1, 11] was “Form A” and the “Crystal form obtained, TC” value ([1]; Toluene) was “Form A”. The “Crystal form obtained, TC” value ([1]; Trifluoroethanol:Isopropyl ether (20:80)) was “Form A”, the “Crystal form obtained, TC” value ([1]; Water, water activity 1.00) was “Form A” and the “Crystal form obtained, TC” value ([1]; t-Butyl methyl ether) was “Form A”. For the same molecule, the IC50 (IL-6) was 0.145 µM and the IC50 (TNFα) was 0.004 µM.
For `CN(Cc1cnc2nc(N)nc(N)c2n1)c1ccc(C(=O)N[C@@H](CCC(=O)O)C(=O)O)cc1` [MTX, Methotrexate], the “AUC0-∞” value [2] was 562.2 (102.2) ng · h/mL, the Cmax [2] was 163.3 (35.6) ng/mL and the “Tmax, median (min, max)” value [2] was 1.0 (0.5, 2.5) h. For the same molecule, the t1/2 [2] was 3.1 (0.7) h.
`Cc1cnc(-c2ccnc(C(C)(C)O)n2)cc1-n1c(C)cc(OCc2ncc(F)cc2F)c(Cl)c1=O` (atropisomer, axis not shown; (M)) [(M)-I, (M)-3-chloro-4-((3,5-difluoropyridin-2-yl)methoxy)-2′-(2-(2-hydroxypropan-2-yl)pyrimidin-4-yl)-5′,6-dimethyl-2H-[1,4′-bipyridin]-2-one] gave an IC50 (IL-1β) of over 10000 µM, an IC50 (IL-6) of over 10000 µM and an IC50 (TNFα) of over 10000 µM.

Source: patent US11844801B2, “Oral compositions of MK2 pathway inhibitor for treatment of immune conditions” (priority 2020, dated 2023)
